Here are results for 3 compounds from US8742132B2, “Indolylmaleimide derivatives processes for their production and pharmaceutical compositions” (Novartis AG, priority 2006, dated 2014).

One experiment concerns the target T1, Human recombinant PKCα (Homo sapiens, UniProt P17252).
T1 construct: purchased Oxford Biomedical Research
Kind of experiment: Protein Kinase Cα Assay. The format is biochemical. Particulars: single compounds. As to the method: (§1) The compounds of the invention are tested for their activity on different PKC isoforms according to the following method. Assay is performed in a white with clear bottom 384-well microtiterplate with non-binding surface. The reaction mixture (25 μl) contains 1.5 μM of a tridecapeptide acceptor substrate that mimics the pseudo substrate sequence of PKC a with the Ala→Ser replacement, 10 μM ^33P-ATP, 10 mM Mg(NO3)2, 0.2 mM CaCl2, PKC at a protein concentration varying from 25 to 400 ng/ml (depending on the isotype used), lipid vesicles (containing 30 mol % phosphatidylserine, 5 mol % DAG and 65 mol % phosphatidylcholine) at a final lipid concentration of 0.5 mM, in 20 mM Tris-HCl buffer pH 7.4 +0.1% BSA. Incubation is performed for 60 min at room temperature. Reaction is stopped by adding 50 μl of stop mix (100 mM EDTA, 200 μM ATP, 0.1% Triton X-100, 0.375 mg/well streptavidin-coated SPA beads in phosphate buffered saline w/o Ca, Mg. After 10 min incubation at room temperature, the suspension is spun down for 10 min at 300 g. Incorporated radioactivity is measured in a Trilux counter for 1 min. IC50 measurement is performed on a routine basis by incubating a serial dilution of inhibitor at concentrations ranging between […]. IC50 values are calculated from the graph by curve fitting with XL Fit® software. […]

The target of the next experiment is T2, Human recombinant PKCβ1 (Homo sapiens, UniProt P05771).
T2 construct: purchased Oxford Biomedical Research
T2 sequence (P05771 whole entry): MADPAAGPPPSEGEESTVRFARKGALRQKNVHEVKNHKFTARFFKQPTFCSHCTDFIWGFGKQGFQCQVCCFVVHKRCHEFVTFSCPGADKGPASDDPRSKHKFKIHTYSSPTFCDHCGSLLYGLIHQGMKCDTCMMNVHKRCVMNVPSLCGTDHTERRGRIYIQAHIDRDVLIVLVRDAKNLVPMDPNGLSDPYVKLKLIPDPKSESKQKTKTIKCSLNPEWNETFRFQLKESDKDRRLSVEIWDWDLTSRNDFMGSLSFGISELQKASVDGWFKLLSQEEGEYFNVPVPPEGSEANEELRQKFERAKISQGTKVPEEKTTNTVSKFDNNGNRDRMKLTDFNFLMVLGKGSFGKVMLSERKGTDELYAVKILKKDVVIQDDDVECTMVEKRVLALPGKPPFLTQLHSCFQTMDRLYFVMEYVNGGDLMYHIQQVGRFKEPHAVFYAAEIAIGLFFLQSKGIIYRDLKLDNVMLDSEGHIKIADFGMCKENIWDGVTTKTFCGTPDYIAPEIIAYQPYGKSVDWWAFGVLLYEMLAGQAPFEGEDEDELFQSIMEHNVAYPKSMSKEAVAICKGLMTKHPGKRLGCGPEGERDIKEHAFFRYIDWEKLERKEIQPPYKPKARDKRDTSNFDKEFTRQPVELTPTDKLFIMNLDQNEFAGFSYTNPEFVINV
Description: Protein Kinase Cβ1 Assay. Format: biochemical. Particulars: single compounds. The procedure:
as §1

Regarding `CNCc1ccc2[nH]c(C)c(C3=C(c4cn(C)c5ccccc45)C(=O)NC3=O)c2c1` [Example 51], the IC50 – broadly, the concentration needed to halve the response being measured – at Human recombinant PKCα is 0.3 nM.

For the compound `Cc1cc2ccc(CN(C)C)cn2c1C1=C(c2c[nH]c3ccccc23)C(=O)NC1=O` [Example 24, 3-(6-Dimethylaminomethyl-2-methyl-indolizin-3-yl)-4-(1H-indol-3-yl)-pyrrole-2,5-dione], on Human recombinant PKCβ1, the half-maximal inhibitory concentration (IC50) was 18.2 nM.

On to `Cc1ccc2c(C3=C(c4c(C(F)(F)F)[nH]c5ccc(CN(C)C)cc45)C(=O)NC3=O)c[nH]c2c1` [Example 47], for which the 50% inhibitory concentration (IC50) at Human recombinant PKCβ1 was determined as 0.9 nM.
